The compounds below were run against T1, THP-TNF-α (Tamm-Horsfall glycoprotein / tumor necrosis factor-α binding pair) (Homo sapiens, UniProt P01375+P07911) (assay: ELISA, monosaccharide inhibition of THP-TNF-α binding). Conditions: 10 µg sugar preincubated overnight at 4 °C with coated TNF-α or coated THP, then the other protein added; which partner holds the sugar is not resolved.
T1 construct: recombinant human TNF-α (R&D Systems, 17 kDa); native THP purified from normal human urine (80-90 kDa)
T1 sequence (P01375 77-233, other chains not shown): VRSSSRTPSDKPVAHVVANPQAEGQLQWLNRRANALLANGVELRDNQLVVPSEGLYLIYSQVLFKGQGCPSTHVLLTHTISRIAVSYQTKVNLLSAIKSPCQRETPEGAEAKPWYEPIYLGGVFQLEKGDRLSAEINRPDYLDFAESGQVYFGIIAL

Row | Structure (SMILES) | ELISA, monosaccharide inhibition of THP-TNF-α binding
1 | CC(=O)N[C@H]1C(O)O[C@H](CO)[C@@H](O)[C@@H]1O (stereo partly drawn) [N-acetyl-glucosamine] | mannose, GlcNAc, and GalNAc significantly suppressed THP-TNF-α binding
2 | CO[C@H]1O[C@H](CO)[C@@H](O)[C@H](O)[C@@H]1O [α-methyl-D-mannoside] | mannose, GlcNAc, and GalNAc significantly suppressed THP-TNF-α binding
3 | CC(=O)N[C@H]1C(O)O[C@H](CO)[C@H](O)[C@@H]1O (stereo partly drawn) [N-acetyl-galactosamine] | mannose, GlcNAc, and GalNAc significantly suppressed THP-TNF-α binding

Reference: PMC6268941, “The Binding Affinity and Molecular Basis of the Structure-Binding Relationship between Urinary Tamm-Horsfall Glycoprotein and Tumor Necrosis Factor-α” (Molecules, 2012)
